Assay results as given in patent US20070238660A1 (priority 2006, published 2007).

Test system: viruses
Test: Virus inactivation by fabric with attached dye under illumination
Type: cell-based
Conditions: for virus inactivation (in words): low light illumination levels, FIG. 4

## Cc1cc2cc3cc(C)c(N)cc3nc2cc1N.Cl [acridine yellow G]
Exposure to light as low as 500 Lux
  viruses inactivated: at least 99%
  virus inactivation (in words): unexpected efficiency in virus inactivation
Listed as Acridine yellow G
  virus inactivation (in words): very high virus inactivation
